Experimental data published in patent US10821118B2, “Oral transmucosal drug delivery system” (ABON PHARMACEUTICALS, LLC, priority 2012, dated 2020).
≈ marks a conversion by molar mass, not a printed value.

Assays:
[1] = Heat of fusion of testosterone by DSC, molten / heat treated testosterone-agent samples; type: physicochemical; conditions: pure crystalline testosterone, at melting point of about 150° C.
Description: The heat of fusion (ΔHf) can be measured via Differential Scanning calorimetry (DSC).
Talc is an inert purified hydrated magnesium silicate with a melting point of 1500° C.

[2] = Testosterone solubility in aqueous media (SSF) containing various CIAs; type: physicochemical; conditions: Simulated Saliva Fluid (SSF) containing CIA, thermodynamic from solid, Solubility of Testosterone in CIA Containing SSF
Description: Then the sample was filtered through a 0.45 μm polyvinylidene fluoride (PVDF) and the filtrate was analyzed by HPLC.

[3] = system: Sex Hormone Binding Globulin (SHBG), albumin; conditions: cited from earlier work
[4] = Solubility of crystalline drug in water; conditions: 37 °C
[5] = Solubility of testosterone in molten CIA systems
Description: In each solubility study, a molten solvent of single or combination CIA was prepared by heating and melting the CIA system using a water bath. […] The melt suspension was mixed for at least another 30 minutes while maintaining the CIA's molten state.

## C[C@]12CC[C@H]3[C@@H](CCC4=CC(=O)CC[C@@]43C)[C@@H]1CC[C@@H]2O [Testosterone]
[1]
  heat of fusion (ΔHf): about 102.4 J/g
[2]; aqueous with cosolvent or surfactant or cyclodextrin, SSF with 0.25% vitamin E-TPGS
  solubility: 60.8 µg/mL (≈ 211 µM)
[2]; aqueous with cosolvent or surfactant or cyclodextrin, SSF with 0.5% vitamin E-TPGS
  solubility: 90.1 µg/mL (≈ 312 µM)
[2]; aqueous with cosolvent or surfactant or cyclodextrin, SSF with 5% lauroyl polyoxyl-32 glycerides
  solubility: 358 µg/mL (≈ 1240 µM)
[2]; aqueous with cosolvent or surfactant or cyclodextrin, SSF with 5% oleic acid (oleic acid itself not soluble in SSF)
  solubility: 27 µg/mL (≈ 93.6 µM)
[2]; aqueous with cosolvent or surfactant or cyclodextrin, SSF with 5% polyethylene glycol
  solubility: 32 µg/mL (≈ 111 µM)
[2]; aqueous with cosolvent or surfactant or cyclodextrin, SSF with 5% vitamin E-TPGS
  solubility: 600 µg/mL (≈ 2080 µM)
[2]; aqueous with cosolvent or surfactant or cyclodextrin, SSF with 10% lauroyl polyoxyl-32 glycerides
  solubility: 694 µg/mL (≈ 2410 µM)
[2]; aqueous with cosolvent or surfactant or cyclodextrin, SSF with 10% oleic acid (oleic acid itself not soluble in SSF)
  solubility: 29 µg/mL (≈ 101 µM)
[2]; aqueous with cosolvent or surfactant or cyclodextrin, SSF with 10% polyethylene glycol
  solubility: 45 µg/mL (≈ 156 µM)
[2]; aqueous with cosolvent or surfactant or cyclodextrin, SSF with 10% vitamin E-TPGS
  solubility: 1210 µg/mL (≈ 4200 µM)
[2]; aqueous with cosolvent or surfactant or cyclodextrin, SSF with 20% lauroyl polyoxyl-32 glycerides
  solubility: 1350 µg/mL (≈ 4670 µM)
[2]; aqueous with cosolvent or surfactant or cyclodextrin, SSF with 20% oleic acid (oleic acid itself not soluble in SSF)
  solubility: 29 µg/mL (≈ 101 µM)
[2]; aqueous with cosolvent or surfactant or cyclodextrin, SSF with 20% polyethylene glycol
  solubility: 69.4 µg/mL (≈ 241 µM)
[2]; aqueous with cosolvent or surfactant or cyclodextrin, SSF with 20% vitamin E-TPGS
  solubility: 2250 µg/mL (≈ 7800 µM)
[2]; aqueous with cosolvent or surfactant or cyclodextrin, saturated CIA solution, 0.34 g/mL of lauroyl polyoxyl-32 glycerides in SSF
  solubility: 2370 µg/mL (≈ 8220 µM)
[2]; aqueous with cosolvent or surfactant or cyclodextrin, saturated CIA solution, 0.53 g of vitamin E TPGS in SSF
  solubility: 4190 µg/mL (≈ 14500 µM)
[2]; aqueous with cosolvent or surfactant or cyclodextrin, saturated CIA solution, 1.73 g/mL of polyethylene glycol in SSF
  solubility: 1600 µg/mL (≈ 5550 µM)
[2]; fassgf or other biorelevant, SSF with 0.25% polyethylene glycol
  solubility: 28.1 µg/mL (≈ 97.4 µM)
[2]; fassgf or other biorelevant, SSF with 0.5% polyethylene glycol
  solubility: 27.8 µg/mL (≈ 96.4 µM)
[3]; blood circulation
  protein bound in the blood circulation: 96%
[3]; in males
  'free': 2-3%
  bound to Sex Hormone Binding Globulin (SHBG): about 44%
  bound to albumin: 50%
[4]
  solubility: ~27 µg/mL (≈ 93.6 µM)
[5]; Table 24: PEG 8000 50% / oleic acid 50%
  Solubility of Testosterone in CIA, Theoretical: 117.1 mg/gm
[5]; Table 24: molten PEG 8000 50% / oleic acid 50%
  Solubility of Testosterone in CIA, Actual: 136.2 mg/gm
[5]; Table 24: molten PEG 8000 50% / vitamin E-TPGS 50%
  Solubility of Testosterone in CIA, Actual: 137.9 mg/gm
[5]; Table 24: molten oleic acid 50% / vitamin E-TPGS 50%
  Solubility of Testosterone in CIA, Actual: 123.6 mg/gm
[5]; Table 24: molten oleic acid 100%
  Solubility of Testosterone in CIA, Actual: 58.3 mg/gm
[5]; Table 24: molten oleic acid 100%, listed as testosterone
  Solubility of Testosterone in CIA, Actual: about 58.3 mg/gm
[5]; Table 24: molten polyethylene glycol 8000 100%
  Solubility of Testosterone in CIA, Actual: 175.9 mg/gm
[5]; Table 24: molten polyethylene glycol 8000 100%, listed as testosterone
  Solubility of Testosterone in CIA, Actual: about 175.9 mg/gm
[5]; Table 24: molten vitamin E-TPGS 100%
  Solubility of Testosterone in CIA, Actual: 78.9 mg/gm
[5]; Table 24: molten vitamin E-TPGS 100%, listed as testosterone
  Solubility of Testosterone in CIA, Actual: about 78.9 mg/gm
[5]; Table 25: PEG 8000 50% / lauroyl polyoxyl-32 glycerides 50%
  Solubility of Testosterone in CIA, Theoretical: 130.0 mg/gm
[5]; Table 25: PEG 8000 50% / vitamin E TPGS 50%
  Solubility of Testosterone in CIA, Theoretical: 130.6 mg/gm
[5]; Table 25: molten PEG 8000 50% / lauroyl polyoxyl-32 glycerides 50%
  Solubility of Testosterone in CIA, Actual: 129.9 mg/gm
[5]; Table 25: molten PEG 8000 50% / vitamin E TPGS 50%
  Solubility of Testosterone in CIA, Actual: 144.2 mg/gm
[5]; Table 25: molten lauroyl polyoxyl-32 glycerides 100%
  Solubility of Testosterone in CIA, Actual: 81.6 mg/gm
[5]; Table 25: molten polyethylene glycol 8000 100%
  Solubility of Testosterone in CIA, Actual: 178.4 mg/gm
[5]; Table 25: molten vitamin E TPGS 50% / lauroyl polyoxyl-32 glycerides 50%
  Solubility of Testosterone in CIA, Actual: 114.6 mg/gm
[5]; Table 25: molten vitamin E TPGS 100%
  Solubility of Testosterone in CIA, Actual: 82.7 mg/gm
[5]; Table 25: vitamin E TPGS 50% / lauroyl polyoxyl-32 glycerides 50%
  Solubility of Testosterone in CIA, Theoretical: 82.2 mg/gm
[5]; […]
  Solubility of Testosterone in CIA, Actual: 136.6 mg/gm
